Test results: US20050032873A1, “3-Amino chroman and 2-amino tetralin derivatives” (Wyeth, priority 2003, published 2005)
Where a name gives a salt, the structure may show the parent alone.

| SMILES | melting point |
| --- | --- |
| CCN(CCCc1c[nH]c2ccc(F)cc12)C1COc2c(F)ccc(C(=O)NC)c2C1 (stereo not drawn) (as salt: hydrochloride) [Compound 89, 3-{ethyl[3-(5-fluoro-1H-indol-3-yl)propyl]amino}-8-fluoro-N-methylchromane-5-carboxamide] | 118 °C (dec.) |
| CCCN(CCCc1c[nH]c2ccc(F)cc12)C1COc2c(F)ccc(C(=O)NC)c2C1 (stereo not drawn) (as salt: hydrochloride) [Compound 90, 8-fluoro-3-[[3-(5-fluoro-1H-indol-3-yl)propyl](propyl)amino]-N-methylchromane-5-carboxamide] | 123 °C (dec.) |
| CNC(=O)c1ccc(F)c2c1CC(N(CCCc1c[nH]c3ccc(F)cc13)CC1CC1)CO2 (stereo not drawn) (as salt: hydrochloride) [Compound 91, 3-{(cyclopropylmethyl)[3-(5-fluoro-1H-indol-3-yl)propyl]amino}-8-fluoro-N-methylchromane-5-carboxamide] | 120 °C (dec.) |
| CNC(=O)c1ccc(F)c2c1CC(NCCCCc1c[nH]c3ccc(F)cc13)CO2 (stereo not drawn) (as salt: hydrochloride) [Compound 92, 8-fluoro-3-{[4-(5-fluoro-1H-indol-3-yl)butyl]amino}-N-methylchromane-5-carboxamide] | 130 °C (dec.) |
| CCCN(CCCCc1c[nH]c2ccc(F)cc12)C1COc2c(F)ccc(C(=O)NC)c2C1 (stereo not drawn) (as salt: hydrochloride) [Compound 93, 8-fluoro-3-[[4-(5-fluoro-1H-indol-3-yl)butyl](propyl)amino]-N-methylchromane-5-carboxamide] | 110 °C (dec.) |
| CNC(=O)c1ccc(F)c2c1CC(N(CCCCc1c[nH]c3ccc(F)cc13)CC1CC1)CO2 (stereo not drawn) (as salt: hydrochloride) [Compound 94, 3-{(cyclopropylmethyl)[4-(5-fluoro-1H-indol-3-yl)butyl]amino}-8-fluoro-N-methylchromane-5-carboxamide] | 112 °C (dec.) |
| CNC(=O)c1ccc(F)c2c1CC(N(CCCCc1c[nH]c3ccc(F)cc13)C1CCC1)CO2 (stereo not drawn) (as salt: hydrochloride) [Compound 95, 3-{cyclobutyl[4-(5-fluoro-1H-indol-3-yl)butyl]amino}-8-fluoro-N-methylchromane-5-carboxamide] | 123 °C (dec.) |
| N#Cc1ccc2[nH]cc(CCCN(C3CCC3)[C@@H]3COc4c(F)ccc(C(N)=O)c4C3)c2c1 (as salt: hydrochloride) [Compound 97a, (3S)-3-[[3-(5-cyano-1H-indol-3-yl)propyl](cyclobutyl)amino]-8-fluorochromane-5-carboxamide] | 170 to 177 °C (dec.) |
| N#Cc1ccc2[nH]cc(CCCN(C3CCC3)[C@H]3COc4c(F)ccc(C(N)=O)c4C3)c2c1 (as salt: hydrochloride) [Compound 97b, (3R)-3-[[3-(5-cyano-1H-indol-3-yl)propyl](cyclobutyl)amino]-8-fluorochromane-5-carboxamide] | 166 to 171 °C (dec.) |
| N#Cc1ccc2[nH]cc(CCCN(CC3CC3)[C@H]3COc4c(F)ccc(C(N)=O)c4C3)c2c1 (as salt: hydrochloride) [Compound 98b, (3R)-3-[[3-(5-cyano-1H-indol-3-yl)propyl](cyclopropylmethyl)amino]-8-fluorochromane-5-carboxamide] | 160 to 167 °C (dec.) |
| COc1cccc2c(CCCNC3COc4c(F)ccc(C(N)=O)c4C3)c[nH]c12 (stereo not drawn) (as salt: hydrochloride) [Compound 99, 8-fluoro-3-{[3-(7-methoxy-1H-indol-3-yl)propyl]amino}chromane-5-carboxamide] | 196 to 198 °C |
| CCCN(CCCc1c[nH]c2c(OC)cccc12)C1COc2c(F)ccc(C(N)=O)c2C1 (stereo not drawn) (as salt: hydrochloride) [Compound 100, 8-fluoro-3-[[3-(7-methoxy-1H-indol-3-yl)propyl](propyl)amino]chromane-5-carboxamide] | 158 to 164 °C (dec.) |
